# From patent US8252814B2, “Agents and crystals for improving excretory potency of urinary bladder” (priority 1998, dated 2012)
# Where two headings read alike, the source gives them in different places. Marks after values point to notes of the source that are not given here.
# Legend:
# guinea pigs [1] = assay: Effect on the flow rate of urine in guinea pigs, single or combined use, Experimental Example 4; type: in vivo, Hartley male guinea pigs; details: guinea pig; for Improvement (%): 10 minutes after administration
# Source text: Effect on the flow rate of urine by single or combined use of Compounds of Reference Examples, distigmine, prazosin, and tamsulosin was examined using Hartley male guinea pigs. Four to six Hartley male guinea pigs weighing about 350 g (SLC) were employed in each treated group. Guinea pigs were anesthetized with urethane, and held, and the bladder was exposed. Two polyethylene tubes (PE-100) were inserted into the bladder. One of the tubes was used in infusion of physiological saline, and the other used for measurement of the internal pressure of the bladder. Saline was infused continuously at a flow rate of 0.3 mL/min. The infusion was stopped at the time when intermittent urination was confirmed at least 3 times, and the whole saline in bladder was removed. Again, infusion was started, and stopped at the time when a rise of the pressure in bladder was confirmed immediately before urination. Excreted urine was weighed on an electronic force balance (HX-400, A&D). Analogue data of the internal pressure of the bladder and urine weight were input in an AD converter (MP-30, Biopac Systems) and the digital signal was analyzed by means of purpose-made software (Student lab pro 2.1.5, Biopac Systems). Sampling interval of the date was fixed at 0.1 second, and the value of urine weight was differentiated to determine the flow rate of urine. In order to remove data noise of the excretion volume and flow rate of urine, the data was adapted to a lowcut filter at 0.5 Hz.
# Measurement was made 2 times before administration of the test compound, and then the test compound was administered intravenously. Again, measurement was made 10 minutes after administration of the test compound.
# The average measured value before administration of the test compounds was regarded as the value before administration, and the rate of change of the values from the ante-administration to the post-administration was calculated to compare between the groups by means of the Dunnet's test.
# urinary bladder = assay: Potentiation effect for rhythmic contraction of urinary bladder in guinea pig, Experimental Example 2; type: in vivo, Hartley male guinea pigs; details: Cavia porcellus, iv, read-out: AUC200 (mg/kg, i.v.)
# Experimental: Potentiation effect of the compounds disclosed in Reference Examples for rhythmic contraction of urinary bladder was examined using Hartley male guinea pigs. Hartley male guinea pigs (SLC) weighing about 300 g were anesthetized with urethane (1.2 g/kg, i.p.), held, and incised at the midline of abdomen to expose the bladder. The urethra was ligated, and a polyethylene tube (PE-50) was inserted into the bladder. The internal pressure of the bladder was measured with a blood pressure amplifier (Nippon Koden), and the data was collected on a personal computer through an A/D converter (MP-30, Biopac Systems). A proper amount of physiological saline was injected into the bladder through a cannula to induce rhythmic contraction of the to bladder.
# The area (AUC) that is formed by a curve of the internal pressure of the bladder and a base line was calculated through analytical software (Studentlab pro 2.1.5, Biopac Systems) to evaluate the effect of the test compounds. The curve of the internal pressure is made based on the bladder contraction immediately before administration of the test compound and the first contraction 5 minutes after the administration. From the dose-dependent curve of AUC, the dose at which AUC before drug administration was increased 2 times (AUC200) was calculated to determine potency of contraction-enhancing effect of the test compounds for the muscle of urinary bladder. In addition, the potency of contraction-enhancing effect of […] for the muscle of bladder was determined in the same manner as mentioned above.
# [2] = molecular target: T1, acetylcholinesterase of human erythrocyte origin (Homo sapiens, UniProt P22303); assay: Measurement of acetylcholinesterase-inhibiting action (acetylthiocholine / Ellman method), Experimental Example 1; type: biochemical; details: at least 3 experiments
# T1 construct: Acetylcholinesterase of human erythrocyte origin (Sigma Chemical Co.); purchased Sigma Chemical Co; host or cells: human erythrocytes (natural source)
# T1 sequence (P22303 32-617 isoform P22303-2 limits assumed): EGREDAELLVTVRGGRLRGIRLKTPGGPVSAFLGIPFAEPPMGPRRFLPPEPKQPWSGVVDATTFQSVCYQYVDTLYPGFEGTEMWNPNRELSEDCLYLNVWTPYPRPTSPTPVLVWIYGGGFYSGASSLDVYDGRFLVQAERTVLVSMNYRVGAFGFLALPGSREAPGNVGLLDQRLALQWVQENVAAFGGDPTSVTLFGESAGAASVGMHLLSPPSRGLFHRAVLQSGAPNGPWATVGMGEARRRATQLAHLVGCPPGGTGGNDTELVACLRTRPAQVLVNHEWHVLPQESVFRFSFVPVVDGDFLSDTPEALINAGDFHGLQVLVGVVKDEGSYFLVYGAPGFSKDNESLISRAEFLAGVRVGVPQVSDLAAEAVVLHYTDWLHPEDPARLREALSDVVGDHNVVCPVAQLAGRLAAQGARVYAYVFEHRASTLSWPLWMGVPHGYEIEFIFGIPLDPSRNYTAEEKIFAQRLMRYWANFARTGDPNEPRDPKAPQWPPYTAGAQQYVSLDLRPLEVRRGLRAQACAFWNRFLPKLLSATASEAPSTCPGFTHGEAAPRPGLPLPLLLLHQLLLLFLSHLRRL
# Experimental: Acetylcholinesterase-inhibiting action of the compounds disclosed in Reference Examples was measured using acetylcholinesterase of human erythrocyte origin according to the acetylthiocholine method (Ellman method).
# Acetylcholinesterase of human erythrocyte origin (Sigma Chemical Co.) was dissolved in distilled water at a concentration of 0.2 IU/mL to give an enzyme authentic sample. To a 96-well microplate was dispensed 20 μL of drug solution, 30 μL of 80 mM Tris-HCl (pH 7.4), 50 μL of enzyme authentic sample and 50 μL of 5 mM 5,5-dithio-bis(2-nitrobenzoic acid) (Sigma Chemical Co.), and the plate was shaken for 10 seconds. Then, 50 μL of acetylthiocholine iodide (Sigma Chemical Co.) was added, and the plate was again shaken. Immediately after shaking, increase of extinction at […] was measured at intervals of 30 seconds for 10 minutes. The enzyme activity was determined according to the following equation.
# The experiment was repeated at least 3 times for each compound to obtain 50% inhibitory concentration (IC50). Moreover, in the same manner as mentioned above, acetylcholinesterase-inhibiting activity of distigmine was measured.
# guinea pigs [3] = assay: Effect on urination efficiency in guinea pigs, Experimental Example 3; type: in vivo, Hartley male guinea pigs; details: guinea pig; for Efficiency of Urination (%) Before adm.: before administration; for Efficiency of Urination (%) After adm. / Improvement of Efficiency (%): 10 minutes after administration
# Source text: Effect of the compounds of Reference Examples on urination efficiency was examined using Hartley male guinea pigs. Six to ten Hartley male guinea pigs weighing 346.5±3.5 g (SLC) were employed in each treated group. Guinea pigs were anesthetized with urethane, and held, and the bladder was exposed. Two polyethylene tubes (PE-50 and PE-100) were inserted into the bladder. One (PE-50) of the tubes was used in infusion of physiological saline, and the other (PE-100) was used for measurement of the internal pressure of the bladder. Saline was infused continuously at a flow rate of 0.3 mL/min. The infusion was stopped at the time when intermittent urination was confirmed at least 3 times, and the whole saline in bladder was removed. Again, infusion was started, and stopped at the time when a rise of the pressure in bladder was confirmed immediately before urination, and the time required for infusion and the weight of excreted urine were measured. Efficiency of urination was calculated from the following equation. Efficiency of urination (%)=100×Excreted volume (mL)/Infusion time (min)×0.3 (mL/min)
# Measurement was made at least 2 times before administration of the test compound, and then the test compound was dissolved in distilled water and administered intravenously. […] Effect by administration of solvents was also confirmed.
# The average measured value before administration of the test compounds was regarded as the value before administration, and applied to the paired-t test for a significant difference test with the value after the administration. (** p<0.01, * p<0.05)
# [4] = urethane-anesthetized guinea pig, dose at which AUC of bladder internal pressure before drug administration was increased 2 times
smiles,measurement,setting,value
COc1cc2nc(N3CCN(C(=O)c4ccco4)CC3)nc(N)c2cc1OC [Prazosin],Flow Rate (mL/sec) Ante-admn.,"guinea pigs [1]; prazosin 0.1 mg/kg i.v. group, before administration (Table 8)",0.18 ± 0.03 mL/s
same,Flow Rate (mL/sec) Post-admn.,"guinea pigs [1]; prazosin 0.1 mg/kg i.v., 10 minutes after administration (Table 8)",0.17 ± 0.02 mL/s
same,Improvement (%),"guinea pigs [1]; prazosin 0.1 mg/kg i.v., control DMSO (Table 8)",0.97 ± 10.32%
N#Cc1cccc(CN2CCC(CCC(=O)c3cc4c5c(c3)CCN5C(=O)CC4)CC2)c1 [Reference Example 1],ED (2-fold bladder contraction AUC),urinary bladder; [4],0.005 mg/kg
same,IC50,[2],13.6 nM
"O=C(CCC1CCN(Cc2cccc(F)c2)CC1)c1cc2c3c(c1)CCN3C(=O)CC2 [Reference Example 15, 8-[3-[1-[(3-fluorophenyl)methyl]-4-piperidinyl]-1-oxopropyl]-1,2,5,6-tetrahydro-4H-pyrrolo[3,2,1-ij]quinolin-4-one]",ED (2-fold bladder contraction AUC),urinary bladder; [4],0.0013 mg/kg
same,Flow Rate (mL/sec) Ante-admn.,"guinea pigs [1]; Ref. Ex. 15 0.001 mg/kg i.v. group, before administration (Table 9)",0.17 ± 0.03 mL/s
same,Flow Rate (mL/sec) Post-admn.,"guinea pigs [1]; Ref. Ex. 15 0.001 mg/kg i.v., 10 minutes after administration (Table 9)",0.15 ± 0.02 mL/s
same,Improvement (%),"guinea pigs [1]; Ref. Ex. 15 0.001 mg/kg i.v., control distilled water (Table 9)",−6.5 ± 12.1%
same,Flow Rate (mL/sec) Ante-admn.,"guinea pigs [1]; Ref. Ex. 15 0.01 mg/kg i.v. group, before administration (Table 8)",0.27 ± 0.03 mL/s
same,Flow Rate (mL/sec) Post-admn.,"guinea pigs [1]; Ref. Ex. 15 0.01 mg/kg i.v., 10 minutes after administration (Table 8)",0.29 ± 0.05 mL/s
same,Improvement (%),"guinea pigs [1]; Ref. Ex. 15 0.01 mg/kg i.v., control DMSO (Table 8)",6.81 ± 7.84%
same,Efficiency of Urination (%) Before adm.,guinea pigs [3]; 0.003 mg/kg i.v. group,71.5 ± 7.9%
same,Efficiency of Urination (%) After adm.,guinea pigs [3]; 0.003 mg/kg i.v.,79.6 ± 6.4%
same,Improvement of Efficiency (%),guinea pigs [3]; 0.003 mg/kg i.v.,16.2%
same,Efficiency of Urination (%) Before adm.,guinea pigs [3]; 0.01 mg/kg i.v. group,60.0 ± 7.7%
same,Efficiency of Urination (%) After adm.,guinea pigs [3]; 0.01 mg/kg i.v.,93.9 ± 3.0%
same,Improvement of Efficiency (%),guinea pigs [3]; 0.01 mg/kg i.v.,77.0** %
same,Efficiency of Urination (%) Before adm.,guinea pigs [3]; 0.03 mg/kg i.v. group,65.5 ± 9.0%
same,Efficiency of Urination (%) After adm.,guinea pigs [3]; 0.03 mg/kg i.v.,88.9 ± 3.1%
same,Improvement of Efficiency (%),guinea pigs [3]; 0.03 mg/kg i.v.,66.2* %
same,IC50,[2],4.4 nM
"O=C(CCC1CCN(Cc2ccccc2)CC1)c1cc2c3c(c1)CCN3C(=O)CC2 [Reference Example 17, 8-[3-[1-(phenylmethyl)-4-piperidinyl]-1-oxopropyl]-1,2,5,6-tetrahydro-4H-pyrrolo[3,2,1-ij]quinolin-4-one]",ED (2-fold bladder contraction AUC),urinary bladder,0.0034 mg/kg
same,IC50,[2],7.8 nM
CCOc1ccccc1OCCN[C@H](C)Cc1ccc(OC)c(S(N)(=O)=O)c1 [Tamsulosin],Flow Rate (mL/sec) Ante-admn.,"guinea pigs [1]; tamsulosin 0.1 mg/kg i.v. group, before administration (Table 9)",0.16 ± 0.01 mL/s
same,Flow Rate (mL/sec) Post-admn.,"guinea pigs [1]; tamsulosin 0.1 mg/kg i.v., 10 minutes after administration (Table 9)",0.14 ± 0.02 mL/s
same,Improvement (%),"guinea pigs [1]; tamsulosin 0.1 mg/kg i.v., control distilled water (Table 9)",−11.8 ± 4.8%
O=C(CCC1CCN(Cc2cccc(Cl)c2)CC1)c1cc2c3c(c1)CCN3C(=O)CC2 [compound 4],ED (2-fold bladder contraction AUC),urinary bladder; [4],0.005 mg/kg
same,IC50,[2],10.9 nM
Cc1cccc(CN2CCC(CCC(=O)c3cc4c5c(c3)CCN5C(=O)CC4)CC2)c1 [compound 6],ED (2-fold bladder contraction AUC),urinary bladder; [4],0.0049 mg/kg
same,IC50,[2],18.9 nM
Cc1ccccc1CN1CCC(CCC(=O)c2cc3c4c(c2)CCN4C(=O)CC3)CC1 [compound 7],ED (2-fold bladder contraction AUC),urinary bladder; [4],0.0055 mg/kg
same,IC50,[2],22.1 nM
O=C(CCC1CCN(Cc2cccc([N+](=O)[O-])c2)CC1)c1cc2c3c(c1)CCN3C(=O)CC2 [compound 12],ED (2-fold bladder contraction AUC),urinary bladder; [4],0.006 mg/kg
same,IC50,[2],8.1 nM
O=C(CCC1CCN(Cc2ccccc2O)CC1)c1cc2c3c(c1)CCN3C(=O)CC2 [compound 13],ED (2-fold bladder contraction AUC),urinary bladder; [4],0.0013 mg/kg
same,IC50,[2],5.2 nM
O=C(CCC1CCN(Cc2ccccc2Cl)CC1)c1cc2c3c(c1)CCN3C(=O)CC2 [compound 14],ED (2-fold bladder contraction AUC),urinary bladder; [4],0.0016 mg/kg
same,IC50,[2],9.9 nM
O=C(CCC1CCN(Cc2ccccc2)CC1)c1cc2c3c(c1)CC(=O)N3CCC2 [compound 18],ED (2-fold bladder contraction AUC),urinary bladder,0.0051 mg/kg
same,IC50,[2],10.9 nM
Nc1c2c(nc3ccccc13)CCCC2 [compound 30],Efficiency of Urination (%) Before adm.,guinea pigs [3]; 0.3 mg/kg i.v. group (Ref. Ex. 30),62.2 ± 5.1%
same,Efficiency of Urination (%) After adm.,guinea pigs [3]; 0.3 mg/kg i.v.,74.5 ± 5.1%
same,Improvement of Efficiency (%),guinea pigs [3]; 0.3 mg/kg i.v.,22.0** %
same,Efficiency of Urination (%) Before adm.,guinea pigs [3]; 1.0 mg/kg i.v. group (Ref. Ex. 30),62.8 ± 7.8%
same,Efficiency of Urination (%) After adm.,guinea pigs [3]; 1.0 mg/kg i.v.,84.9 ± 4.8%
same,Improvement of Efficiency (%),guinea pigs [3]; 1.0 mg/kg i.v.,55.4* %
same,Efficiency of Urination (%) Before adm.,guinea pigs [3]; 3.0 mg/kg i.v. group (Ref. Ex. 30),65.8 ± 8.9%
same,Efficiency of Urination (%) After adm.,guinea pigs [3]; 3.0 mg/kg i.v.,89.0 ± 2.7%
same,Improvement of Efficiency (%),guinea pigs [3]; 3.0 mg/kg i.v.,64.2* %
